Tests used:
[1] = molecular target: Methionine aminopeptidase 2 (Homo sapiens, UniProt P50579); assay: MetAP Inhibition Assay; settings: pH 7.5; 22 °C
Method: (§1) The MetAP reaction with Co2+ as a cofactor is coupled to a prolyl aminopeptidase (ProAP) using Met-Pro-p-nitroanilide as substrate. MetAP-catalyzed cleavage of the N-terminal methionine produces prolyl-p-nitroanilide, which is rapidly hydrolyzed by ProAP to release a chromogenic product. […] The initial rate was calculated from the early part of the reaction progress curve (<5 min). Activity assays were performed in triplicate using eight to 16 concentrations of substrate or inhibitor.

[2] = molecular target: Methionine aminopeptidase 1 (Homo sapiens, UniProt P53582); assay: MetAP Inhibition Assay; settings: pH 7.5; 22 °C
Method: as §1

Methionine aminopeptidase 2, sequence (P50579 whole entry): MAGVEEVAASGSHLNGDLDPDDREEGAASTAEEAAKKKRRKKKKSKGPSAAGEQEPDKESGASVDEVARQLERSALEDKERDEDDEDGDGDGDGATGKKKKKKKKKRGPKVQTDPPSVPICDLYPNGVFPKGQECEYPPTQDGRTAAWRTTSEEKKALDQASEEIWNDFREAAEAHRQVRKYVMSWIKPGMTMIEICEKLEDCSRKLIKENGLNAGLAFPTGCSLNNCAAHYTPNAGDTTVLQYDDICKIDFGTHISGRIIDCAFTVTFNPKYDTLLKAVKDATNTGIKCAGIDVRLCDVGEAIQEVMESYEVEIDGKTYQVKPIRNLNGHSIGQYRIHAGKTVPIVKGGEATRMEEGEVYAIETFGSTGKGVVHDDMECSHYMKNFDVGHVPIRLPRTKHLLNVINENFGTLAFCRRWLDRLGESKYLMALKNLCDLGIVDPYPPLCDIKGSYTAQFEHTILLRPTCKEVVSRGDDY

| IC50 [1] [µM] | IC50 [2] [µM] | Compound |
| --- | --- | --- |
| > 500 | – | CC(C)(C)C(=O)Nc1cccnc1C(=O)Nc1nccs1 [3-(2,2-dimethylpropanamido)-N-(1,3-thiazol-2-yl)pyridine-2-carboxamide] |
| > 500 | 3.5 | O=C(CCc1ccccc1)Nc1cccnc1C(=O)Nc1nccs1 [3-(3-phenylpropanamido)-N-(1,3-thiazol-2-yl)pyridine-2-carboxamide] |
| > 1000 | 6.4 | CC(C)C=Nc1cccnc1C(=O)Nc1nccs1 [3-[(E)-(2-methylpropylidene)amino]-N-(1,3-thiazol-2-yl)pyridine-2-carboxamide] |
| > 500 | > 500 | CCCCCCCC(=O)Nc1cccnc1C(=O)Nc1nccs1 [3-octanamido-N-(1,3-thiazol-2-yl)pyridine-2-carboxamide] |
| > 300 | – | CC(C)(C)OC(=O)Nc1cccnc1C(=O)Nc1nccs1 [tert-butyl N-[2-(1,3-thiazol-2-ylcarbamoyl)pyridin-3-yl]carbamate] |
